Laboratory results: patent US20230381141A1, “CONJOINT THERAPIES FOR TREATING VIRAL INFECTIONS” (priority 2022, published 2023)
Values joined by “and” are separate entries in the source; they are usually repeats but may differ in a detail not shown here. Equal values may be shown once. “Also recorded” adds a separate entry of the source. Read-outs that look alike come from different tables or passages of the source.

Tests used:
SARS-CoV-2 PL^pro = SARS-CoV-2 PL^pro (Severe acute respiratory syndrome coronavirus 2, UniProt P0DTD1); experiment: biochemical; conditions: for inhibition at 50 µM: read-out: inhibition of PL^pro activity in library screening
[1] = Plasma drug level in mice by LC-MS/MS; conditions: C57BL/6, mouse
Protocol: Following compound administration, mice were euthanized at 2 hours, followed by perfusion.
(§3) Two hours after dosing, mice were anesthetized and blood was collected following transcardial puncture for the isolation of plasma. Mice were then perfused transcardially with saline and brain tissue removed.

[2] = system: IFN induction (IRF3 reporter); experiment: IFN induction assay, IRF3 binding site Firefly luciferase reporter with poly(I:C); format: cell-based
Vero E6 normal cells = conditions: cited from earlier work
SARS-CoV-2 = conditions: cited from earlier work; for EC50: read-out: antiviral EC50; for EC90: read-out: antiviral EC90
[3] = system: IFN-β induction in HEK293T cells expressing SARS-CoV-2 PL^pro; format: cell-based
[4] = Brain drug level in mice by LC-MS/MS; conditions: for concentration at 2 h: male, C57BL/6, mouse, brain, po, 30 mg/kg; for brain permeability: pilot PK studies in mice
Source text: as §3

SARS-CoV-2 M^pro = SARS-CoV-2 M^pro (Severe acute respiratory syndrome coronavirus 2, UniProt P0DTD1); experiment: M^pro activity assay, fluorogenic substrate; format: biochemical; conditions: alone, FIG. 7B
[5] = biological target: spike protein-ACE2 complex (UniProt P0DTC2+Q9BYF1); conditions: separate study; cited from earlier work
[6] = biological target: PL^pro deubiquitinase activity (Severe acute respiratory syndrome coronavirus 2, UniProt P0DTD1); experiment: PL^pro deubiquitinase substrate assay; format: biochemical, SARS-CoV-2
Protocol: (§1) Briefly, in each assay, the enzyme was loaded into each well in the appropriate buffer, next the compounds were added into the well and incubated for 10-60 min at 37° C. The reaction was initiated by addition of substrate to each well and the fluorescent signal was read for 60 min at the appropriate excitation/emission.
(§2) For the PL^pro and PL^pro deubiquitinase assays, DTT was added to the assay buffer to achieve 1 mM DTT before the assay. A 10 mM stock of compounds was prepared in DMSO, this stock was diluted in assay buffer to achieve a 10× of the desire concentration in the well. Next, the PL^pro and deubiquitinase substrates were diluted to 42 μM and 0.5 μM respectively in the assay buffer. Then, PL^pro enzyme was diluted to 2.5 ng/μL and 6 ng/μL for the PL^pro and deubiquitinase assays respectively in the assay buffer. […] The reaction was started by adding 12.5 μL of the substrate to each well, the reaction was monitored for 1 h at excitation at 360 nm; emission at 460 nm. For the ISG15 substrate, PL^pro enzyme at 0.1 nM was incubated with compounds for lh and the reaction was initiated by adding ISG15-RH110 substrate at 500 nM, the reaction was monitored for 1-hour excitation at 485 nm; emission at 535 nm. […] Following the incubation, 2 μL of substrate at 25 μM was added into the wells and the fluorescent signal (ex/em 380/455 nm) was recorded for 1 h at 37° C.

[7] = cited from earlier work
[8] = biological target: PL^pro ISG15 cleavage activity (Severe acute respiratory syndrome coronavirus 2, UniProt P0DTD1); experiment: PL^pro ISG15 substrate (deISGylase) assay; format: biochemical, SARS-CoV-2
Protocol: as §1, §2

PL^pro = PL^pro (Severe acute respiratory syndrome coronavirus 2, UniProt P0DTD1); conditions: read-out: reported PL^pro IC50; cited from earlier work
[9] = PL^pro peptide substrate, dose response, read-out: IC50 PL^pro inhibition
[10] = po, 30 mg/kg, plasma levels in combination DDL-701+DDL-750, mice, oral gavage 30 mg/kg, combination, FIG. 5
[11] = po, 30 mg/kg, plasma levels, mice, oral gavage 30 mg/kg, given alone, FIG. 5
[12] = male, oral, plasma levels in combination, mice, DDL-701 + DDL-750 both 30 mg/Kg oral, FIG. 9
[13] = male, po, 30 mg/kg, plasma levels, mice, oral 30 mg/Kg, given alone, FIG. 9
[14] = SARS-CoV-2 infected VeroE6 cells
[15] = 1 μM, poly I:C, Wuhan strain PL^pro
[16] = Vero E6 cells infected with SARS-CoV-2
[17] = in combination with DDL-750 or DDL-750/DDL-751, FIG. 2
[18] = read-out: Cmax in human plasma after oral dosing, oral dosing

Chain of spike protein-ACE2 complex (Q9BYF1 18-805, one chain of several): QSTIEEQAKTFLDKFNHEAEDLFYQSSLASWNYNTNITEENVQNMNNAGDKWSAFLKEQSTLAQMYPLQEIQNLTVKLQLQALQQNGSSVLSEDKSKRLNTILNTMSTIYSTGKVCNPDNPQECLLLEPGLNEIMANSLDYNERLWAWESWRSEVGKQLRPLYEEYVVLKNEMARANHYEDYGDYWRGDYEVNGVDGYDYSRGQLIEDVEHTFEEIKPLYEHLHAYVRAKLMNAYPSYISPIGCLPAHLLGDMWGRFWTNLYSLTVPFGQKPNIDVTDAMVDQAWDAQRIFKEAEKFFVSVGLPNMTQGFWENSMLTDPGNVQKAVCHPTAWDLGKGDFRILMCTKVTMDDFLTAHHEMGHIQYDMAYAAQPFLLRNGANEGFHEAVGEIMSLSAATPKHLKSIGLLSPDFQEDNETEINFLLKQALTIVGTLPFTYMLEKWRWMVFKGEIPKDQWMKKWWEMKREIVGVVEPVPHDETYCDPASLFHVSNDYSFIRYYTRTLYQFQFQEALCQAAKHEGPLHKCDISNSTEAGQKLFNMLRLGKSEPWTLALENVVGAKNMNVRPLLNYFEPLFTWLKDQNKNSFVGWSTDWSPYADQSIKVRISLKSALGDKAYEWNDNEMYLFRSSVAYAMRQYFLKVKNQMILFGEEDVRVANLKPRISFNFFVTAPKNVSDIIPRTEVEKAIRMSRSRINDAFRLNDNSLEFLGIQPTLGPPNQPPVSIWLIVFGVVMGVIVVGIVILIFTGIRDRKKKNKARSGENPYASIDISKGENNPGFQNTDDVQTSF

In the case of `CC1=NN(c2ccc(C)c(C)c2)C(=O)/C1=N/Nc1cccc(-c2cccc(-c3nnn[nH]3)c2)c1O` [DDL-713, thrombopoietin receptor agonist-1], the IC50 (SARS-CoV-2 PL^pro; [9]) is reported as roughly 54 µM and the inhibition at 50 µM (SARS-CoV-2 PL^pro; compounds at 50 μM) is reported as greater than 80%.
For `CC(C)(C)[C@H](NC(=O)C(F)(F)F)C(=O)N1C[C@H]2[C@@H]([C@H]1C(=O)N[C@H](C#N)C[C@@H]1CCNC1=O)C2(C)C` [DDL-750, nirmatrelvir], the concentration at 2 h [1, 10] was 0.1 µM, the concentration at 2 h [1, 11] was roughly 0.4 µM and the concentration at 2 h [1, 12] was ~100 nM and ~55 ng/mL. For the same compound, the concentration at 2 h [1, 13] was ~500 nM and ~234 ng/mL, the IFN induction ([2]; at 1 μM) was “approximately 1.3 fold over DMSO” and the CC50 (Vero E6 normal cells) was greater than 100 µM. For the same compound, the EC50 (SARS-CoV-2; [14]) was 0.074 µM, the EC90 (SARS-CoV-2; [14]) was 0.155 µM and the “rescue of IFN-β induction in the presence of PL^pro” value (“rescue of IFN-β induction” below) [3, 15] was “not”. For the same compound, the “rescue of IFN-β induction” value ([3]; any dose) was “Neither DDL-715 nor DDL-750 rescued IFN-β induction”, the concentration at 2 h [4] was ~180 nM and ~91 ng/g and the brain permeability [4] was “lower brain-permeability”.
In the case of `CC1=NN(c2ccc(C)c(C)c2)C(=O)/C1=N/Nc1cccc(-c2cccc(C(=O)O)c2)c1O` [DDL-701, eltrombopag], the concentration at 2 h [1, 10] is reported as 4 µM, the concentration at 2 h [1, 11] is reported as roughly 11 µM and the concentration at 2 h [1, 12] is reported as ~4 µM and 1630 ng/mL. The concentration at 2 h [1, 13] was ~14 µM and ~6210 ng/mL, the “activity in M^pro activity assay” value (SARS-CoV-2 M^pro) was “did not show activity; also recorded: not M^pro” and the IFN induction ([2]; at 10 and 1 μM) was “approximately 1.5 fold over DMSO”. For the same compound, the CC50 (Vero E6 normal cells) was greater than 50 µM, the EC50 (SARS-CoV-2; [16]) was 8.2 µM and the EC90 (SARS-CoV-2; [16]) was 9.5 µM. For the same compound, the EC50 (SARS-CoV-2; Vero cells infected with SARS-CoV-2 (Sangeun J. et al., 2020)) was roughly 8 µM, the “rescue of IFN-β induction” value [3, 15] was “modestly yet significantly rescued; also recorded: partially restored” and the “rescue of IFN-β induction” value ([3]; higher concentrations than 1 μM) was “did not rescue induction”. The concentration at 2 h [4] was ~1 µM and ~442 ng/g, the “brain penetration relative to nirmatrelvir” value ([4]; mice, oral 30 mg/Kg, 2 hours) was greater than 5 fold and the brain permeability [4] was “brain-permeable”. For the same compound, the “effect on spike protein-ACE2 complex” value [5] was “bind and reduce the stability”, the “inhibition of PL^pro by DDL-701 in combination with DDL-750” value (SARS-CoV-2 PL^pro; DDL-701/750 at 50 μM/0.1 μM, FIG. 7A) was “not affected” and the “inhibition of PL^pro” value (SARS-CoV-2 PL^pro; DDL-701 alone at 50 μM, FIG. 7A) was “almost complete”. For the same compound, the IC50 (SARS-CoV-2 PL^pro; [9]) was 13 µM, the “PLpro inhibition in combination” value (SARS-CoV-2 PL^pro; [17]) was “inhibits; also recorded: continues to show its inhibition” and the inhibition at 50 µM (SARS-CoV-2 PL^pro) was greater than 80%. The IC50 ([6]; deubiquitinase substrate, dose response) was 21 µM, the “deubiquitinase inhibition in combination” value [6, 17] was “inhibits” and the AUC ([7]; human, single oral dose of 75 mg, tablet) was 168 µg·h/mL. The Cmax ([7]; read-out: plasma Cmax, human, single oral dose of 75 mg, tablet) was 25000 to 36000 nM, the Cmax ([7]; read-out: steady state drug level in plasma, Cmax, human, 75 mg tablet, oral dosing, steady state) was roughly 50000 nM and the IC50 ([8]; ISG15 substrate, dose response) was 8 µM. For the same compound, the “ISG15 activity inhibition in combination” value [8, 17] was “inhibits”.
With `COc1cc(C(=O)NS(=O)(=O)c2ccccc2C)ccc1Cc1cn(C)c2ccc(NC(=O)OC3CCCC3)cc12` [DDL-715, zafirlukast] the concentration at 2 h [1, 11] was roughly 4 µM, the IFN induction ([2]; at 10 and 1 μM) was “approximately 1.5 fold over DMSO” and the “rescue of IFN-β induction” value [3, 15] was “not”. The “rescue of IFN-β induction” value ([3]; any dose) was “Neither DDL-715 nor DDL-750 rescued IFN-β induction”, the IC50 (SARS-CoV-2 PL^pro) was roughly 24 µM and the inhibition at 50 µM (SARS-CoV-2 PL^pro; compounds at 50 μM) was greater than 80%. The Cmax ([7]; human, in vivo, po) was roughly 500 nM.
For `O=C(O)c1cc(F)c2nc(N3[C@@H]4CC[C@H]3C[C@@H](OCc3c(-c5ccccc5OC(F)(F)F)noc3C3CC3)C4)sc2c1` [tropifexor], the IC50 (PL^pro) is given as roughly 6 µM and the Cmax [7, 18] is given as less than 100 nM.
With `CC(C)c1nc(CN(C)C(=O)N[C@H](C(=O)N[C@@H](Cc2ccccc2)C[C@H](O)[C@H](Cc2ccccc2)NC(=O)OCc2cncs2)C(C)C)cs1` [DDL-751, ritonavir] the IFN induction ([2]; at the concentration tested) was “did not produce IFN induction”.
In the case of `CCCCc1nc(Cl)c(CO)n1Cc1ccc(-c2ccccc2-c2nn[nH]n2)cc1` [losartan], the IC50 (PL^pro) is listed as roughly 13 µM and the Cmax [7, 18] is listed as roughly 500 nM.
